Where “and” joins values, the source holds several entries; their conditions need not be identical. Identical values can stand only once.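 Tested at 5 concentrations; 48 h exposure; 96-well plates; endpoints linearly interpolated, else capped at highest concentration. GI50 is the concentration that inhibits growth by half. TGI is the concentration that stops growth completely.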
How the values were obtained:
Experiment in all cases: DTP human tumour cell line panel, 48 h
OVCAR-5 ovarian = test system: OVCAR-5 ovarian
ACHN renal = test system: ACHN renal
SK-OV-3 ovarian = test system: SK-OV-3 ovarian
HCT-116 colon = test system: HCT-116 colon
NCI-H226 lung = test system: NCI-H226 lung
SNB-75 CNS = test system: SNB-75 CNS
SF-295 CNS = test system: SF-295 CNS
A549 NSCLC = test system: A549 NSCLC
HOP-62 NSCLC = test system: HOP-62 NSCLC
HCT-15 colon = test system: HCT-15 colon

| SMILES | TGI (OVCAR-5 ovarian) | TGI (ACHN renal) | TGI (SK-OV-3 ovarian) | TGI (HCT-116 colon) | TGI (NCI-H226 lung) | TGI (SNB-75 CNS) | TGI (SF-295 CNS) | TGI (A549 NSCLC) | TGI (HOP-62 NSCLC) | TGI (HCT-15 colon) | GI50 (ACHN renal) | GI50 (HCT-116 colon) | GI50 (SNB-75 CNS) | GI50 (A549 NSCLC) | GI50 (HCT-15 colon) | GI50 (OVCAR-5 ovarian) | GI50 (SK-OV-3 ovarian) | GI50 (NCI-H226 lung) | GI50 (SF-295 CNS) | GI50 (HOP-62 NSCLC) |
| --- | --- | --- | --- | --- | --- | --- | --- | --- | --- | --- | --- | --- | --- | --- | --- | --- | --- | --- | --- | --- |
| O=C(/C=N/O)Nc1cccc(Cl)c1I | > 100 µM | > 100 µM | > 100 µM | > 100 µM | > 100 µM | 43.4 µM | > 100 µM | > 100 µM | > 100 µM | > 100 µM |  |  |  |  |  |  |  |  |  |  |
| CC(=O)OCCc1cc2ccccc2oc1=O | > 100 µM | > 100 µM |  | > 100 µM | > 100 µM | > 100 µM | > 100 µM | > 100 µM | > 100 µM | > 100 µM |  |  |  |  |  |  |  |  |  |  |
| Cc1ccc(/C=C2\CCCC(C(NO)c3ccc(C)cc3)C2=NO)cc1 (stereo unspecified) |  | > 100 µM | > 100 µM | > 100 µM |  | 98.2 µM |  | > 100 µM | > 100 µM | > 100 µM |  |  |  |  |  |  |  |  |  |  |
| COc1cc(OC)c(OC)cc1/C=C\c1ccnc2ccccc12 | > 100 µM | > 100 µM | 9.68 µM | 54.8 µM | 30.2 µM | 2.51 µM | 3.55 µM | > 72.6 µM | > 62.1 µM | > 100 µM |  |  |  |  |  |  |  |  |  |  |
| CCOc1ccccc1NC(=O)C1=C(C)NC(C)=C(C(=O)Nc2ccccc2OCC)C1c1ccc2c(c1)OCO2 | > 100 µM | > 100 µM | > 100 µM |  | > 100 µM | 35.3 µM | 74.6 µM | > 100 µM | > 100 µM |  |  |  |  |  |  |  |  |  |  |  |
| CCOC(=O)c1cnc2c(ccc3ncccc32)c1OCC | > 100 µM | > 100 µM | > 100 µM | > 100 µM | > 100 µM | > 100 µM |  | > 100 µM | > 100 µM | > 100 µM |  |  |  |  |  |  |  |  |  |  |
| COc1ccc(S(=O)(=O)NNS(C)(=O)=O)cc1OC |  | > 100 µM |  |  | > 100 µM | > 100 µM | > 100 µM | > 100 µM | > 100 µM | > 100 µM |  |  |  |  |  |  |  |  |  |  |
| Clc1ccc(/C=C/c2csnn2)cc1 | > 100 µM | > 100 µM | > 100 µM | > 100 µM | > 100 µM | > 100 µM | > 100 µM | > 100 µM | > 100 µM | > 100 µM |  |  |  |  |  |  |  |  |  |  |
| Cc1cc(=O)[nH]c2c1C(=O)c1c(C)cc(=O)n(C)c1C2=O | 0.31 µM | 0.223 µM | 0.432 µM | 0.253 µM | 0.0777 µM | 0.0325 µM | 0.31 µM | 0.399 µM | 0.0999 µM | 0.264 µM |  |  |  |  |  |  |  |  |  |  |
| Cc1ccc(-n2cc(/C(N)=N/O)c3ccccc3c2=O)cc1 |  | > 100 µM | > 100 µM | > 100 µM | > 100 µM |  | > 100 µM | > 100 µM | > 100 µM | > 100 µM |  |  |  |  |  |  |  |  |  |  |
| Nc1nc2c(ncn2C2OC(CO)C(O)C2O)c(=O)[nH]1 (stereo unspecified) | > 100 µM and 291 µM | > 100 µM | > 100 µM and 263 µM | > 100 µM and 201 µM | 224 µM | > 100 µM and 38 µM | > 100 µM and 184 µM | > 100 µM and 170 µM | 211 µM | > 100 µM and 191 µM | > 100 µM | > 100 µM | > 100 µM | > 100 µM and 15.8 µM | > 100 µM and 20.7 µM |  |  |  |  |  |
| Cc1ncc([N+](=O)[O-])n1CCOc1ccc(C(=O)/C=C/c2ccc(C(F)(F)F)cc2)cc1 | 14.4 µM | 9.14 µM | 15.3 µM | 3.34 µM | 20.4 µM | 12.8 µM | 13.8 µM | 8.5 µM | 7.29 µM | 4.09 µM | 2.77 µM | 1.65 µM | 2.57 µM | 2.42 µM | 1.82 µM | 2.93 µM | 4.13 µM | 4.25 µM | 3.47 µM | 2.53 µM |
| CC(C)OC(=O)c1cc(NC(=S)OC(C)C)ccc1Cl | > 63.1 µM | > 59.7 µM | > 62.6 µM | > 54.6 µM | 37.6 µM | 47.5 µM | 46.9 µM | > 66.8 µM | > 100 µM | 53.4 µM |  |  |  |  |  |  |  |  |  |  |
| NCC[PH+](c1ccccc1)c1ccccc1.NCC[PH+](c1ccccc1)c1ccccc1.[Cl-].[Pt+4] | > 100 µM | > 100 µM | > 100 µM | > 100 µM | > 100 µM | > 100 µM | > 100 µM | > 100 µM | > 100 µM | > 100 µM | > 100 µM | 46.1 µM | > 100 µM | > 100 µM | > 100 µM | > 100 µM | > 100 µM | > 100 µM | > 100 µM | > 100 µM |
| Cn1cc(C2=C(c3cccc([N+](=O)[O-])c3)C(=O)NC2=O)c2ccccc21 | > 25 µM | > 25 µM | > 25 µM | > 25 µM | > 19.2 µM | > 25 µM | > 14 µM | > 25 µM | > 25 µM | > 25 µM | 4.88 µM | 5.5 µM | 0.14 µM | 8.52 µM | 7.97 µM | > 25 µM | 6.35 µM | 4.62 µM | 2.14 µM | 7.47 µM |
| Cc1cc2nc3c(C(OC4OC(CO)C(O)C(O)C4O)C(O)CO)nn(-c4ccc(F)cc4)c3nc2cc1C (stereo unspecified) | > 100 µM | > 100 µM | > 100 µM | > 100 µM |  | > 100 µM | > 100 µM |  | > 100 µM | > 100 µM |  |  |  |  |  |  |  |  |  |  |
| CN(Cc1cnc2nc(N)nc(N)c2n1)c1c(Cl)cc(C(=O)NC(CCC(=O)O)C(=O)O)cc1Br (stereo unspecified) | > 100 µM | > 100 µM | > 100 µM | > 100 µM | > 100 µM |  |  | > 100 µM | > 100 µM | > 100 µM | < 0.01 µM | < 0.01 µM |  | < 0.01 µM | < 0.01 µM | 0.127 µM | 0.0595 µM | 0.0237 µM | < 0.01 µM | < 0.0221 µM |
| COc1ccc(C2C(C(=O)O)=C(COC(C)=O)Oc3cc4c(cc32)OCO4)c(OC)c1 (stereo unspecified) |  | > 100 µM | > 100 µM | > 100 µM |  | > 100 µM | > 100 µM | > 100 µM | > 100 µM | > 100 µM |  |  |  |  |  |  |  |  |  |  |
